# Data taken from patent US10064909B2, “Compositions and methods for chronic use of a weight-gaining compound” (priority 2015, dated 2018).
# Assays:
# GH = test: One-year dog safety study: GH plasma levels; type: in vivo, Beagle dogs; conditions: dogs, Days 1, 170 and 351 following treatment
# Method: This study evaluated the safety of capromorelin in dogs. Thirty-two Beagle dogs were randomly assigned to four groups (n=4/sex/group) and received 0 mg/kg, 0.39 mg/kg, 9.2 mg/kg, or 52.4 mg/kg capromorelin (with the dose calculated per the tartrate salt) once daily by oral gavage for 12 consecutive months. Safety parameters were evaluated including clinical signs, food consumption, bodyweight, clinical pathology, urinalysis, ophthalmology, electrocardiogram and vital signs. Capromorelin, GH and IGF-1 were measured in plasma samples collected at various time points during the study. At the end of the dosing period, dogs were humanely euthanized and necropsied. Selected organs were weighed and tissue samples collected and processed for microscopic examination.
# [1] = Safety and effectiveness of daily capromorelin in cats with CKD for 90 days (field study, Example 9); type: in vivo
# Method: This study was to confirm the safety and effectiveness of AT-002 (capromorelin) in cats under field conditions using a dose of 2 mg/kg administered once daily for 90 days. The study tested the hypotheses that AT-002 will maintain or increase bodyweight, improve body condition score (BCS), improve muscle condition score (MCS), improve appetite and/or improve quality of life (QoL) in cats. This was a double-masked, randomized, placebo-controlled, multi-site, proof of concept field study.
# This study enrolled cats diagnosed with chronic kidney disease (CKD) and a minimum 6-month history of losing weight. The enrollment target was for a minimum of 15 evaluable cases in the AT-002 group and 15 evaluable cases in the Control Product (CP; placebo) group. The Investigator and all study personnel were masked to treatment code (A or B) and treatment group (AT-002 or CP). The Dispenser and Owner remained blinded to treatment group (AT-002 or CP).
# Cats were treated with a dosage of 2 mg/kg body weight of AT-002 (AT-002) or a placebo (CP) formulation at the same dose volume as the AT-002 once daily for 90±3 days. Day 0 was the first day of dosing. Cats were evaluated on Day 0, Day 14±1, Day 30±2, Day 60±3 and Day 90±3. The primary effectiveness variable was change in bodyweight from Day 0 through Day 90±3. Secondary effectiveness variables included BCS, MCS, owner appetite assessments and owner QoL assessments.
# After enrollment, each case was randomly assigned to AT-002 or CP in a 1:1 ratio. The enrollment target was at least 30 evaluable cases (15 AT-002 and 15 CP) per the study randomization schedule across all sites.
# Cats included in the study were spayed/neutered cats of any age and breed with a documented historical decrease in bodyweight over the previous 6 months, and a diagnosis of chronic kidney disease (IRIS stages II, III or IV). Cats on medications for certain stable, chronic conditions were allowed. Excluded from the study were cats in crisis or moribund, cats with documented and uncontrolled hyperthyroidism or inflammatory bowel disease, cats in which food intake is contraindicated (i.e. suspected foreign body, gastrointestinal surgery), cats with dental disease severe enough to impair food intake, cats with diabetes, and cats currently receiving prohibited medications.
# The Owner maintained the feeding regime the cat was on at study enrollment. No special foods and no special feeding schedule were required. Water was available ad libitum. The cat's diet was monitored and a “Diet History” completed when the Investigator interviewed the Owner at screening/qualification (Day 0), Day 30±2, Day 60±3 and Day 90±3 or at the last study visit (i.e. early removal).
# Bodyweight was measured in pounds to the nearest tenth decimal place as part of the physical examination at screening/qualification/Day 0, Day 14±1, Day 30±2, Day 60±3 and Day 90±3 and at the time of any unscheduled visit or early removal from the study. […]
# [2] = Capromorelin efficacy in cats for 21 days: food consumption and bodyweight; type: in vivo; conditions: for mean food intake increase over baseline: Day 1 to Day 21 vs Days -3 to -1
# Method: Thirty-two cats (16 neutered males, 16 females) were divided into 4 treatment groups including 4 animals of each sex per group. The cats were acclimated to the study environment for 10 days prior to study start. All cats were orally dosed with placebo (Group 1) or capromorelin (30 mg/ml oral solution, Formulation 9 as described above) at 1 mg/kg (Group 2), 2 mg/kg (Group 3) or 3 mg/kg (Group 4), for 21 days, with dosing starting on Day 1. Physical examinations were performed on Day −10 and general health observations made daily. Body weights were evaluated on Days −10, −8, −1, 1, 8, 15 and 22 days. Cats were fed about 1 hour after dosing. Commercial dry cat food (300 g) was provided for 5 hours and then removed and the amount of food consumed (g) calculated per cat. On Days 1, 14 and 21, blood samples were collected prior to daily dose administration and at 8 hours post-dose and serum processed for measurement of IGF-1 levels.
# On Day 12, two study animals (one male each from Groups 1 and 4) were removed for reasons unrelated to the study and were not included in the data analysis. Cat 4M4 in the 3 mg/kg group lost significant weight during the first 8 days of treatment—then rebounded and began to gain the weight back. Statistical analysis for weight gain was completed with and without this cat's (4M4) data included.
compound,measurement,setting,value
"CN1N=C2CCN(C(=O)[C@@H](COCc3ccccc3)NC(=O)C(C)(C)N)C[C@@]2(Cc2ccccc2)C1=O.O=C(O)C(O)C(O)C(=O)O [capromorelin, N-[(2R)-1-[(3aR)-2-methyl-3-oxo-3a-(phenylmethyl)-6,7-dihydro-4H-pyrazolo[4,3-c]pyridin-5-yl]-1-oxo-3-(phenylmethoxy)propan-2-yl]-2-amino-2-methylpropanamide L-tartrate]",GH plasma levels,GH,increased modestly
same,adverse events with evidence for a potential relationship to treatment,"[1]; 2 mg/kg once daily, 90 days",increased salivation and potentially vomiting
same,tolerability,"[1]; 2 mg/kg once daily, 90 days",well-tolerated
same,"body condition score, muscle condition score, owner appetite assessment and quality of life parameters","[1]; 2 mg/kg once daily, vs placebo",no meaningful statistical differences
same,bodyweight during the treatment period,"[1]; 2 mg/kg oral once daily, 90 days",gained weight
same,mean descriptive (monthly) quality of life score,"[1]; 2 mg/kg, Day 0 to Day 90",remained the same
same,mean percent bodyweight change,"[2]; 1 mg/kg (Group 2), Day 15",4.24%
same,mean percent bodyweight change,"[2]; 1 mg/kg (Group 2), Day 22 (21-day exposure)",5.41%
same,mean food intake increase over baseline,[2]; 1 mg/kg oral (Group 2),25.32%
same,mean percent bodyweight change,"[2]; 2 mg/kg (Group 3), Day 8",3.23%
same,mean percent bodyweight change,"[2]; 2 mg/kg (Group 3), Day 15",5.97%
same,mean percent bodyweight change,"[2]; 2 mg/kg (Group 3), Day 22 (21-day exposure)",6.61%
same,mean food intake increase over baseline,[2]; 2 mg/kg oral (Group 3),45.67%
same,mean food consumption change from baseline,"[2]; 2 mg/kg, interval Day 8 through Day 14",54.42%
same,mean percent bodyweight change,"[2]; 3 mg/kg (Group 4), 21-day exposure",3.92%
same,mean food intake increase over baseline,[2]; 3 mg/kg oral (Group 4),29.59%
